# Experimental data from US4016159A, “Acylamino-cephem-carboxylic acids containing an amidino or guanidino group in the molecule” (Hoechst Aktiengesellschaft, priority 1973, dated 1977).
# Read-outs that look alike come from different tables or passages of the source.
# Tests used:
# Type in all cases: cell-based
# Proteus mirabilis = assay: Minimum inhibition concentration (MIC), Table 2; conditions: read-out: Minimum inhibition concentration (MIC)
# Description: Minimum inhibition concentration (MIC) in /ml
# [1] = system: Staphylococcus aureus SG 511; assay: Minimum inhibition concentration (MIC), Table 5; conditions: Staphylococcus aureus
# Description: (§1) Minimum inhibition concentration (MIC) in γ/ml
# Germ: Staphylococcus aureus SG 511
# [2] = system: Staphylococcus aureus 285; assay: Minimum inhibition concentration (MIC), Table 1; conditions: Staphylococcus aureus, 285, Germ: Staphylococcus aureus 285; read-out: Minimum inhibition concentration (MIC)
# Description: as §1
# Germ: Staphylococcus aureus 285
# Streptococcus D = assay: Minimum inhibition concentration (MIC), Table 4; conditions: Streptococcus, read-out: Minimum inhibition concentration (MIC)
# Description: as §1
# Streptococcus pyogenes A = assay: Minimum inhibition concentration (MIC), Table 3; conditions: read-out: Minimum inhibition concentration MIC
# Description: Minimum inhibition concentration MIC in γ/ml
# Germ: Streptococcus pyogenes A
# [3] = SG511, Germ: Staphylococcus aureus SG 511, read-out: Minimum inhibition concentration (MIC)
SMILES,MIC (Proteus mirabilis; Germ: Proteus mirabilis),"MIC [1, 3]",MIC [2],MIC (Streptococcus D; Germ: Streptococcus D),MIC (Streptococcus pyogenes A; Germ: Streptococcus pyogenes A),MIC (Proteus mirabilis; Proteus mirabilis),"MIC ([1]; SG511, read-out: Minimum inhibition concentration (MIC))",MIC (Streptococcus D),MIC (Streptococcus pyogenes A; Streptococcus pyogenes)
"CCCc1nnc(SCC2=C(C(=O)O)N3C(=O)C(NC(=O)Cc4ccc(C(=N)N)cc4)C3SC2)s1 (stereo not drawn) [Example 58, 3-[(5-n-propyl-1,3,4-thiadiazole-2-yl)-thiomethyl]-7-(4-amidinophenylacetamido)-Δ 3-cephem-4-carboxylic acid]",3.1 to 12.5 µg/mL,0.0196 to 0.0391 µg/mL,0.156 to 0.391 µg/mL,10 to 50 µg/mL,0.000391 to 0.0078 µg/mL,,,,
"Cc1n[nH]c(SCC2=C(C(=O)O)N3C(=O)C(NC(=O)Cc4ccc(C(=N)N)cc4)C3SC2)n1 (stereo not drawn) [Example 23, 3-[(5-methyl-1,2,4-triazole-3-yl)-thiomethyl]-7-(4-amidino-phenylacetamido)-Δ 3-cephem-4-carboxylic acid]",25 µg/mL,,1.6 to 2.5 µg/mL,,,,,,
"CCCc1nnc(SCC2=C(C(=O)O)N3C(=O)C(NC(=O)Cc4ccc(C(=N)N)cc4)C3SC2)o1 (stereo not drawn) [Example 44, 3-[(5-n-propyl-1,3,4-oxadiazole-2-yl)-thiomethyl]-7-(4-amidino-phenylacetamido)-Δ 3-cephem-4-carboxylic acid]",3.1 to 12.5 µg/mL,,0.156 to 0.391 µg/mL,10 to 50 µg/mL,0.000391 to 0.0078 µg/mL,,,,
"CC(=O)OCC1=C(C(=O)O)N2C(=O)[C@@H](NC(=O)Cc3cccs3)[C@H]2SC1 [Cephalotin-Na, reference compound]",,,,,,12.5 µg/mL,0.13 µg/mL,78.5 µg/mL,0.05 µg/mL
"Cc1nnc(SCC2=C(C(=O)O)N3C(=O)C(NC(=O)Cc4ccc(C5=NCCCN5)cc4)C3SC2)s1 (stereo not drawn) [Example 11, 3-[(5-methyl-1,3,4-thiadiazole-2-yl)-thiomethyl]-7-[4-(1,4,5,6-tetrahydro-pyrimide-2-yl)-phenylacetamido]-Δ 3-cephem-4-carboxylic acid]",3.1 to 12.5 µg/mL,,0.5 to 1.25 µg/mL,10 to 50 µg/mL,0.008 to 0.0156 µg/mL,,,,
"O=C(Cc1ccc(C2=NCCCN2)cc1)NC1C(=O)N2C(C(=O)O)=C(CSc3nncs3)CSC12 (stereo not drawn) [Example 19, 3-[(1,3,4-thiadiazole-2-yl)-thiomethyl]-7-[4-(1,4,5,6-tetrahydropyrimide-2-yl)-phenylacetamido]-Δ 3-cephem-4-carboxylic acid]",3.1 to 12.5 µg/mL,,0.5 to 1.25 µg/mL,10 to 50 µg/mL,0.000391 to 0.0078 µg/mL,,,,

# More lines, main results first:
MIC (Proteus mirabilis; Germ: Proteus mirabilis),"MIC [1, 3]",MIC [2],MIC (Streptococcus D; Germ: Streptococcus D),MIC (Streptococcus pyogenes A; Germ: Streptococcus pyogenes A),SMILES,MIC (Proteus mirabilis; Proteus mirabilis),"MIC ([1]; SG511, read-out: Minimum inhibition concentration (MIC))",MIC (Streptococcus D),MIC (Streptococcus pyogenes A; Streptococcus pyogenes)
25 µg/mL,0.0625 to 0.078 µg/mL,0.156 to 0.391 µg/mL,0.196 to 6.25 µg/mL,0.000391 to 0.0078 µg/mL,"O=C(Cc1ccc(C2=NCCN2)cc1)NC1C(=O)N2C(C(=O)O)=C(CSc3nc4ccccc4s3)CSC12 (stereo not drawn) [Example 118, 3-[(benzothiazole-2-yl)-thiomethyl]-7-[4-(imidazoline-2-yl)-phenylacetamido]-Δ3-cephem-4-carboxylic acid]",,,,
3.1 to 12.5 µg/mL,,0.156 to 0.391 µg/mL,10 to 50 µg/mL,0.008 to 0.0156 µg/mL,"Cn1nnnc1SCC1=C(C(=O)O)N2C(=O)C(NC(=O)Cc3ccc(C(=N)N)cc3)C2SC1 (stereo not drawn) [Example 89, 3-[(1-methyl-1H-tetrazole-5-yl)-thiomethyl]-7-[4-amidino-phenylacetamido]-Δ 3-cephem-4-carboxylic acid]",,,,
3.1 to 12.5 µg/mL,,,,0.008 to 0.0156 µg/mL,"Nn1cnnc1SCC1=C(C(=O)O)N2C(=O)C(NC(=O)Cc3ccc(C4=NCCCN4)cc3)C2SC1 (stereo not drawn) [Example 100, 3-[(4-amino-4H-1,2,4-triazole-3-yl)-thiomethyl]-7-[4-(1,4,5,6-tetrahydropyrimide-2-yl)-phenylacetamido]-Δ3-cephem-4-carboxylic acid]",,,,
25 µg/mL,,1.6 to 2.5 µg/mL,10 to 50 µg/mL,,"O=C(Cc1ccc(C2=NCCCN2)cc1)NC1C(=O)N2C(C(=O)O)=C(CSc3cccc[n+]3[O-])CSC12 (stereo not drawn) [Example 107, 3-[(1-oxido-2-pyridyl)-thiomethyl]-7-[4-(1,4,5,6-tetrahydropyrimide-2-yl)-phenylacetamido]-Δ3-cephem-4-carboxylic acid]",,,,
25 µg/mL,,1.6 to 2.5 µg/mL,10 to 50 µg/mL,0.000391 to 0.0078 µg/mL,"O=C(Cc1ccc(C2=NCCCN2)cc1)NC1C(=O)N2C(C(=O)O)=C(CSc3ccncc3)CSC12 (stereo not drawn) [Example 97, 3-(4-pyridyl-thiomethyl)-7-[4-(1,4,5,6-tetrahydropyrimide-2-yl)-phenylacetamido]-Δ3-cephem-4-carboxylic acid]",,,,
3.1 to 12.5 µg/mL,,0.5 to 1.25 µg/mL,10 to 50 µg/mL,0.008 to 0.0156 µg/mL,"O=C(Cc1ccc(C2=NCCN2)cc1)NC1C(=O)N2C(C(=O)O)=C(CSc3nnco3)CSC12 (stereo not drawn) [Example 124, 3-[(1,3,4-oxadiazole-2-yl)-thiomethyl]-7-[4-(imidazoline-2-yl)-phenylacetamido]-Δ 3-cephem-4-carboxylic acid]",,,,
